Data on 3 molecules can be found in the NIST ThermoML archive (doi:10.1021/acs.jced.8b01042).

± gives the expanded uncertainty stated by the source.

Data set [1] can be described thus: xn = mol fraction of the nth substance listed. Conditions: 298.15 K; 101.3 kPa; Liquid; Capillary tube (Ostwald / Ubbelohde) method; x1 = 0.66.
For data set [2] the following is noted: 298.15 K; 100 kPa; Liquid; Capillary tube (Ostwald / Ubbelohde) method.

Take `OC1COCOC1` [1,3-dioxan-5-ol] + OCC1COCO1: the viscosity in data set [1] came to 20.05 ± 0.84 mPa·s.

For the molecule `CC1(C)OCC(CO)O1` (stereo not drawn) [2,2-dimethyl-1,3-dioxolane-4-methanol], in data set [2], the viscosity stood at 10.06 ± 0.42 mPa·s.

For the molecule `OCC(O)CO` [glycerol], in data set [2], the viscosity amounted to 1200 ± 97 mPa·s.

Usually viscosity stands for the internal friction of a fluid under shear.
